PubChem BioAssay (NCI)
Where “and” joins values, the source holds several entries; their conditions need not be identical. Equal entries are not always repeated.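 Dose response: 5 concentrations. Exposure: 48 h. Format: 96-well plates. Endpoint: linear interpolation; highest concentration if not reached. At the GI50, growth is halved. TGI: concentration producing complete growth inhibition.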

Tests used:
Assay in all cases: growth of human tumour cells (NCI), 48 h
[1] = tested on: RPMI-8226 leukemia
[2] = tested on: UO-31 renal
[3] = tested on: 786-0 renal
[4] = tested on: A549 NSCLC
[5] = tested on: CAKI-1 renal
[6] = tested on: CCRF-CEM leukemia
[7] = tested on: COLO 205 colon
[8] = tested on: DU-145 prostate
[9] = tested on: HCT-116 colon
[10] = tested on: HCT-15 colon
[11] = tested on: HL-60(TB) leukemia
[12] = tested on: HOP-62 NSCLC
[13] = tested on: HS 578T breast
[14] = tested on: HT29 colon
[15] = tested on: IGROV1 ovarian
[16] = tested on: K-562 leukemia
[17] = tested on: KM12 colon
[18] = tested on: M14 melanoma
[19] = tested on: MCF7 breast
[20] = tested on: MDA-MB-231 breast
[21] = tested on: MDA-MB-435
[22] = tested on: MOLT-4 leukemia
[23] = tested on: NCI-H23 lung
[24] = tested on: NCI-H460 lung
[25] = tested on: NCI-H522 lung
[26] = tested on: NCI/ADR-RES ovarian
[27] = tested on: OVCAR-3 ovarian
[28] = tested on: OVCAR-4 ovarian
[29] = tested on: OVCAR-5 ovarian
[30] = tested on: OVCAR-8 ovarian
[31] = tested on: PC-3 prostate
[32] = tested on: RXF 393 renal
[33] = tested on: SF-268 CNS
[34] = tested on: SF-295 CNS
[35] = tested on: SF-539 CNS
[36] = tested on: SK-MEL-28 melanoma
[37] = tested on: SK-OV-3 ovarian
[38] = tested on: SN12C renal
[39] = tested on: SNB-19 CNS
[40] = tested on: SNB-75 CNS
[41] = tested on: SR leukemia
[42] = tested on: T-47D breast
[43] = tested on: TK-10 renal
[44] = tested on: U251 CNS
[45] = tested on: UACC-257 melanoma
[46] = tested on: UACC-62 melanoma

For `COc1ccc(-c2cc(-c3ccccc3)c(C#N)c(=O)n2C2OC(COC(C)=O)C(OC(C)=O)C(OC(C)=O)C2OC(C)=O)cc1` (stereo not given), the GI50 [1] was 47.3 µM and 11.5 µM, the TGI [1] was over 100 µM and the TGI [2] was over 100 µM.

Compound `OCc1ccc(Oc2c3ccccc3nc3occc23)cc1` has a GI50 [3] of 33.9 µM, a TGI [3] of over 100 µM and a GI50 [4] of 36.5 µM. It also gave a TGI [4] of over 100 µM, a GI50 [5] of 18.1 µM and a TGI [5] of 35.8 µM. For the same compound, the GI50 [6] was 31.3 µM, the TGI [6] was over 100 µM and the GI50 [7] was 26.1 µM. For the same compound, the TGI [7] was 54.8 µM, the GI50 [8] was 33.6 µM and the TGI [8] was over 100 µM. For the same compound, the GI50 [9] was 15.9 µM, the TGI [9] was 29.4 µM and the GI50 [10] was 19.4 µM. For the same compound, the TGI [10] was 47.3 µM, the GI50 [11] was 27.2 µM and the TGI [11] was 79.6 µM. For the same compound, the GI50 [12] was 30.4 µM, the TGI [12] was over 100 µM and the GI50 [13] was 54.8 µM. It also gave a TGI [13] of over 100 µM, a GI50 [14] of 28.6 µM and a TGI [14] of over 100 µM. For the same compound, the GI50 [15] was 45.6 µM, the TGI [15] was over 100 µM and the GI50 [16] was 30.9 µM. For the same compound, the TGI [16] was over 100 µM, the GI50 [17] was 17.8 µM and the TGI [17] was 37.8 µM. It also gave a GI50 [18] of 23.8 µM, a TGI [18] of 57.6 µM and a GI50 [19] of 16.6 µM. The TGI [19] was 39.5 µM, the GI50 [20] was 39.4 µM and the TGI [20] was over 100 µM. For the same compound, the GI50 [21] was 15.5 µM, the TGI [21] was 38.2 µM and the GI50 [22] was 21 µM. For the same compound, the TGI [22] was 47.2 µM, the GI50 [23] was 17.9 µM and the TGI [23] was 40.3 µM. For the same compound, the GI50 [24] was 20.8 µM, the TGI [24] was 68 µM and the GI50 [25] was over 100 µM. For the same compound, the TGI [25] was over 100 µM, the GI50 [26] was 20.2 µM and the TGI [26] was 49 µM. It also gave a GI50 [27] of 22.1 µM, a TGI [27] of 39.7 µM and a GI50 [28] of 37.9 µM. For the same compound, the TGI [28] was over 100 µM, the GI50 [29] was 29.5 µM and the TGI [29] was over 100 µM. It also gave a GI50 [30] of 28.3 µM, a TGI [30] of over 100 µM and a GI50 [31] of 31.8 µM. For the same compound, the TGI [31] was over 100 µM, the GI50 [1] was 20.7 µM and the TGI [1] was 65.5 µM. It also gave a GI50 [32] of 4.7 µM, a TGI [32] of 23.2 µM and a GI50 [33] of 20.6 µM. It also gave a TGI [33] of 66.7 µM, a GI50 [34] of 15.5 µM and a TGI [34] of 35.9 µM. It also gave a GI50 [35] of 28.9 µM, a TGI [35] of 71 µM and a GI50 [36] of 41.4 µM. For the same compound, the TGI [36] was over 100 µM, the GI50 [37] was 36.8 µM and the TGI [37] was over 100 µM. For the same compound, the GI50 [38] was 24.5 µM, the TGI [38] was 62.3 µM and the GI50 [39] was 39.8 µM. It also gave a TGI [39] of over 100 µM, a GI50 [40] of 31.7 µM and a TGI [40] of 89.8 µM. The GI50 [41] was 38.5 µM, the TGI [41] was over 100 µM and the GI50 [42] was 6.94 µM. It also gave a TGI [42] of 62.4 µM, a GI50 [43] of 18.1 µM and a TGI [43] of 46.8 µM. For the same compound, the GI50 [44] was 27 µM, the TGI [44] was 56 µM and the GI50 [45] was 30 µM. It also gave a TGI [45] of 74.7 µM, a GI50 [46] of 20 µM and a TGI [46] of 47.3 µM. It also gave a GI50 [2] of 77.2 µM and a TGI [2] of over 100 µM.
